“And” between values parts separate entries of the source, which are not always exact repeats. Identical values can stand only once.
Molecular target: TSPO (Homo sapiens, UniProt P30536)
Experiment: PET, kinetic compartment analysis (1TCM, 2TCM) with metabolite-corrected arterial input function
Settings: for BPND (k3/k4) Mean: mean of test and retest; for BPND (k3/k4) Retest / BPND (k3/k4) Test / VT (2TCM): mean(SD); for BPND (k3/k4) Retest / BPND (k3/k4) Test: 6 subjects; for ICC: BPND test-retest
Procedure: Each subject was placed recumbent with the head in the PET system. A head fixation system with an individual plaster helmet was used. A cannula was inserted into the left radial artery and another into the right antecubital vein. A sterile phosphate buffer (pH = 7.4) containing radioligand was injected as a bolus over 2 s into the cubital vein. The cannula was then immediately flushed with a 10-mL saline solution. In each individual, the measurement was repeated after approximately 6 weeks.
The PET system used was ECAT Exact HR 47 (Siemens/CTI, Knoxville, TN, USA), with an in-plane and an axial resolution of 3.6 and 4.0 mm, respectively, full width at half maximum (FWHM). The radioactivity in the brain was measured continuously for 60 min using a pre-programmed sequence of […] (20 s × 9, 30 s × 6, 180 s × 5, 300 s × 5). […] The images were reconstructed with a Hanning filter (FWHM = 2 mm) in a matrix of 128 × 128 × 47 voxels, yielding a voxel size of 2.03 × 2.03 × 3.125 mm. Attenuation correction was done using transmission scan data obtained for each subject.
[^11C](R)-PK11195 binding to TSPO was quantified using kinetic compartment analyses with the metabolite-corrected arterial plasma curve as input function. Two compartment models (one- and two-tissue) were used to fit the model to the TACs. The fractional volume of blood present in the tissue volume and bolus time were estimated for each individual, each occasion, by fitting the whole brain TAC with a two-tissue compartment model.
The one-tissue compartment model (1TCM) describes one compartment which is a composite of free, non-specifically and specifically bound radioligands. The two rate constants, K1 and k2, describe the influx and efflux rates across the blood-brain barrier, respectively.
The two-tissue compartment model (2TCM) has been described in detail in the literature. The two-tissue compartments are defined as the radioactivity concentration of a nondisplaceable radioligand in the brain (CND) and the radioactivity concentration of a radioligand specifically bound to receptors (CB). In this model, four rate constants (K1, k2, k3 and k4) explain the time curves for radioligand in the brain. In short, the four rate constants were determined by curve fitting with a weighted non-linear least squares fitting technique with constraint-restricting parameters between 0 and 0.9. Each initial value for K1, k2, k3 and k4 was 0.5, 0.1, 0.5 and 0.5, respectively. The local minimum of the sum of the squared residuals was determined by iteration.
Regional [^11C](R)-PK11195 binding was expressed using the concept of the total distribution volume (VT), which is defined by the following equation, using kinetic constants obtained from 2TCM [16, 20, 21].
Specific [^11C](R)-PK11195 binding was expressed as binding potential relative to nondisplaceable binding (BPND) as follows:
The fractional volume of blood present in the tissue volume was determined for each individual, each occasion. It was obtained by fitting whole brain TAC with a 2TCM with six parameters (K1, k2, k3, k4, fractional blood volume (VB) and time shift between plasma input function and PET TAC (tbolus)) and parameters VB and tbolus subsequently applied for each brain region.
The reproducibility of two successive PET measurements was analysed by means of descriptive statistics (mean, range, SD, coefficient of variance (CV), difference in measurement (error in percent) and intra-class correlation coefficient (ICC)). The ICC was calculated from the between-subject and within-subject variations, using the expression: […]

[1] = putamen (R), BPND test-retest difference in measurements
[2] = thalamus (L), BPND test-retest difference in measurements
[3] = thalamus (R), BPND test-retest difference in measurements
[4] = thalamus, BPND test-retest difference in measurements
[5] = thalamus, VT (2TCM) test-retest
[6] = white matter, 1TCM, retest (2), individual subjects 1-6
[7] = white matter, 1TCM, retest (2), mean(SD/CV) of 6 subjects
[8] = white matter, 1TCM, test (1), individual subjects 1-6
[9] = white matter, 1TCM, test (1), mean(SD/CV) of 6 subjects
[10] = white matter, 2TCM, retest (2), individual subjects 1-6
[11] = white matter, 2TCM, retest (2), mean(SD/CV) of 6 subjects
[12] = white matter, 2TCM, test (1), individual subjects 1-6
[13] = white matter, 2TCM, test (1), mean(SD/CV) of 6 subjects
[14] = white matter, BPND test-retest difference in measurements
[15] = white matter, VT (2TCM) test-retest
[16] = whole brain, BPND test-retest difference in measurements
[17] = whole brain, VT (2TCM) test-retest

Sequence of TSPO (P30536 whole entry): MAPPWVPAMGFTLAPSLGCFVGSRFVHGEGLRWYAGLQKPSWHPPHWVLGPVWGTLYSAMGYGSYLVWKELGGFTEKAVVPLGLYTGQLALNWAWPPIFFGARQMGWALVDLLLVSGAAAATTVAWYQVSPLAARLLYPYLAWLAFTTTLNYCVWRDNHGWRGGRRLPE

## CC[C@@H](C)N([11CH3])C(=O)c1cc2ccccc2c(-c2ccccc2Cl)n1 [[^11C](R)-PK11195]
Putamen (R), 2TCM
  BPND (k3/k4) Mean: 1.41
  BPND (k3/k4) Retest: 1.56(0.73)
  BPND (k3/k4) Test: 1.27(0.48)
Putamen (R)
  ICC: -0.01
[1]
  Error % mean(SD): -32(72) %
  Error range (%): -145 to 34%
putamen, 2TCM
  BPND (k3/k4) Mean: 1.38
  BPND (k3/k4) Retest: 1.50(0.69)
  BPND (k3/k4) Test: 1.20(0.28)
putamen
  ICC: 0.09
putamen, BPND test-retest difference in measurements
  Error range (%): -138 to 21%
putamen, VT (2TCM) test-retest
  Error % mean(SD): 17(38) %
  Error range (%): -32 to 78%
putamen, retest
  VT (2TCM): 0.93(0.19)
putamen, test
  VT (2TCM): 0.83(0.21)
Thalamus (L), 2TCM
  BPND (k3/k4) Mean: 1.26
  BPND (k3/k4) Retest: 1.42(0.59)
  BPND (k3/k4) Test: 1.11(0.25)
Thalamus (L)
  ICC: 0.17
[2]
  Error % mean(SD): -32(64) %
  Error range (%): -136 to 39%
Thalamus (R), 2TCM
  BPND (k3/k4) Mean: 1.60
  BPND (k3/k4) Retest: 1.86(0.56)
  BPND (k3/k4) Test: 1.34(0.43)
Thalamus (R)
  ICC: 0.16
[3]
  Error % mean(SD): -46(50) %
  Error range (%): -136 to 17%
thalamus, 2TCM
  BPND (k3/k4) Mean: 1.36
  BPND (k3/k4) Retest: 1.53(0.45)
  BPND (k3/k4) Test: 1.19(0.28)
thalamus
  ICC: 0.57
[4]
  Error % mean(SD): -29% and -29(33) %
  Error range (%): -82 to 9%
[5]
  Error % mean(SD): -6(29) %
  Error range (%): -47 to 40%
thalamus, retest
  VT (2TCM): 0.80 (0.23)
thalamus, test
  VT (2TCM): 0.90(0.27)
[6]
  K1: 0.075 mL/cc/min and 0.027 mL/cc/min and 0.032 mL/cc/min and 0.033 mL/cc/min and 0.042 mL/cc/min and 0.046 mL/cc/min
  k2: 0.085 min⁻¹ and 0.066 min⁻¹ and 0.078 min⁻¹ and 0.064 min⁻¹ and 0.071 min⁻¹ and 0.089 min⁻¹
[7]
  K1: 0.043(0.017/39) mL/cc/min
  k2: 0.076(0.010/13) min^-1
[8]
  K1: 0.049 mL/cc/min and 0.027 mL/cc/min and 0.048 mL/cc/min and 0.030 mL/cc/min and 0.055 mL/cc/min and 0.044 mL/cc/min
  k2: 0.066 min⁻¹ and 0.081 min⁻¹ and 0.072 min⁻¹ and 0.086 min⁻¹ and 0.071 min⁻¹
[9]
  K1: 0.042(0.011/26) mL/cc/min
  k2: 0.074(0.008/11) min^-1
White matter, 2TCM
  BPND (k3/k4) Mean: 1.84
  BPND (k3/k4) Retest: 1.78(0.42)
  BPND (k3/k4) Test: 1.90(0.42)
[10]
  K1: 0.060 mL/cc/min and 0.097 mL/cc/min and 0.035 mL/cc/min and 0.045 mL/cc/min and 0.039 mL/cc/min and 0.051 mL/cc/min
  k2: 0.206 min⁻¹ and 0.209 min⁻¹ and 0.164 min⁻¹ and 0.223 min⁻¹ and 0.126 min⁻¹ and 0.144 min⁻¹
  k3: 0.042 min⁻¹ and 0.061 min⁻¹ and 0.041 min⁻¹ and 0.046 min⁻¹ and 0.028 min⁻¹ and 0.033 min⁻¹
  k4: 0.025 min⁻¹ and 0.045 min⁻¹ and 0.020 min⁻¹ and 0.019 min⁻¹ and 0.018 min⁻¹ and 0.022 min⁻¹
[11]
  K1: 0.055(0.023/42) mL/cc/min
  k2: 0.179(0.040/22) min^-1
  k3: 0.042(0.011/26) min^-1
  k4: 0.025(0.010/40) min^-1
[12]
  K1: 0.061 mL/cc/min and 0.032 mL/cc/min and 0.035 mL/cc/min and 0.067 mL/cc/min and 0.056 mL/cc/min
  k2: 0.154 min⁻¹ and 0.124 min⁻¹ and 0.184 min⁻¹ and 0.138 min⁻¹ and 0.165 min⁻¹ and 0.176 min⁻¹
  k3: 0.043 min⁻¹ and 0.024 min⁻¹ and 0.034 min⁻¹ and 0.037 min⁻¹
  k4: 0.026 min⁻¹ and 0.019 min⁻¹ and 0.014 min⁻¹ and 0.012 min⁻¹ and 0.030 min⁻¹
[13]
  K1: 0.052(0.015/29) mL/cc/min
  k2: 0.157(0.02/13) min^-1
  k3: 0.034(0.009/26) min^-1
  k4: 0.020(0.007/35) min^-1
White matter
  ICC: 0.73
[14]
  Error % mean(SD): -4% and -8% and -8(18) %
  Error range (%): -25 to 21%
[15]
  Error % mean(SD): -9(25) %
  Error range (%): -42 to 28%
White matter, retest
  VT (2TCM): 0.88 (0.19)
White matter, test
  VT (2TCM): 0.99(0.17)
Whole brain, 2TCM
  BPND (k3/k4) Mean: 1.67
  BPND (k3/k4) Retest: 1.68(0.35)
  BPND (k3/k4) Test: 1.65(0.33)
Whole brain
  ICC: 0.57
[16]
  Error % mean(SD): 4% and -4(19) %
  Error range (%): -25 to 22%
[17]
  Error % mean(SD): -7(20) %
  Error range (%): -38 to 21%
Whole brain, retest
  VT (2TCM): 0.75 (0.16)
Whole brain, test
  VT (2TCM): 0.82(0.18)

From article PMC3350394, “Kinetic analysis and test-retest variability of the radioligand [^11C](R)-PK11195 binding to TSPO in the human brain - a PET study in control subjects” (EJNMMI Research, 2012)
